Data from patent publication US12653894B2, “Degradation of FAK or FAK and ALK by conjugation of FAK and ALK inhibitors with E3 ligase ligands and methods of use” (DANA-FARBER CANCER INSTITUTE, INC., priority 2018, dated 2026).
Entries after “also recorded” stand apart in the source; their conditions may differ.

Tests used:
FAK [1] = target: T1, FAK (Mus musculus, UniProt P34152); assay: In vivo FAK degradation in mouse livers; settings: nude mice, 10 to 50 mpk intraperitoneal, three consecutive days, 4 hours after final treatment
T1 construct: from tissue; host or cells: liver of nude mice
Description: (§1) Mice were treated for three consecutive days and assessments were performed 4 hours after the third and final treatment.
(§2) PA-TU-8988T cells were implanted into the flanks of nude mice. After tumors had formed, mice were treated with indicated FAK degraders for three consecutive days via intraperitoneal administration and sacrificed 4 hours after the third and final treatment. Tumors and livers were harvested and lysed in RIPA on ice for 60 minutes and lysates were clarified by centrifugation. Immunoblotting for FAK was performed to evaluate changes in protein levels upon FAK degrader administration. All samples were run with equal total protein content and immunoblotting was performed using antibodies that detect total FAK protein as well as α-Tubulin as a loading control. Fluorescently labelled infrared secondary antibodies that enable detection using an Odyssey® CLx Imager was employed to evaluate protein levels.

FAK [2] = target: T2, FAK (Homo sapiens, UniProt Q05397); assay: FAK degradation by immunoblot in H3122 cells; type: cell-based; parameters: endogenous in cells; host or cells: H3122; settings: 10 nM to 1000 nM, 16 hours (compound 10) or 24 hours (compounds 1, 9)
FAK [3] = target: T2, FAK; assay: FAK degradation by immunoblot in PA-TU-8988T cells; type: cell-based; parameters: endogenous in cells; host or cells: PA-TU-8988T; settings: PA-TU-8988T cells, 4 hours; for Degradation of FAK protein (in words): 0.1 nM to 1000 nM, immunoblot; for inhibition at 0.01 µM / inhibition at 0.1 µM: PaTu 8988t, total FAK protein, vs DMSO; for inhibition at 0.01 µM: 10 nM, read-out: Degradation at 10 nM; for inhibition at 0.1 µM: 100 nM, read-out: Degradation at 100 nM
Description: (§3) Immunoblotting for FAK was performed to evaluate changes in protein levels upon FAK degrader treatment. All samples were run with equal total protein content and immunoblotting was performed using antibodies that detect total FAK protein as well as GAPDH or α-Tubulin as a loading control. Fluorescently labelled infrared secondary antibodies that enable detection using an Odyssey® CLx Imager was employed to evaluate protein levels.
FAK degraders were evaluated in immunoblot assays to determine the effective dose required to achieve FAK protein loss. Immunoblots for FAK protein were normalized relative to the loading control and percent degradation was evaluated compared to DMSO treatment.

FAK [4] = target: T2, FAK; assay: In vivo FAK degradation in PA-TU-8988T xenograft tumors; parameters: endogenous in cells; host or cells: PA-TU-8988T; settings: nude mice, 10 to 50 mpk intraperitoneal, three consecutive days, 4 hours after final treatment
Description: as §1, §2

ALK [5] = target: T3, ALK (Homo sapiens, UniProt Q9UM73); assay: ALK degradation by immunoblot in H3122 cells; type: cell-based; parameters: endogenous in cells; host or cells: H3122; the other entry of the earlier key: EML4 (Q9HC35, Echinoderm microtubule-associated protein-like 4); settings: 10 nM to 1000 nM, 16 hours (compound 10) or 24 hours (compounds 1, 9)
Target sequence in this assay (Q9UM73 with tags, fused parts or gaps): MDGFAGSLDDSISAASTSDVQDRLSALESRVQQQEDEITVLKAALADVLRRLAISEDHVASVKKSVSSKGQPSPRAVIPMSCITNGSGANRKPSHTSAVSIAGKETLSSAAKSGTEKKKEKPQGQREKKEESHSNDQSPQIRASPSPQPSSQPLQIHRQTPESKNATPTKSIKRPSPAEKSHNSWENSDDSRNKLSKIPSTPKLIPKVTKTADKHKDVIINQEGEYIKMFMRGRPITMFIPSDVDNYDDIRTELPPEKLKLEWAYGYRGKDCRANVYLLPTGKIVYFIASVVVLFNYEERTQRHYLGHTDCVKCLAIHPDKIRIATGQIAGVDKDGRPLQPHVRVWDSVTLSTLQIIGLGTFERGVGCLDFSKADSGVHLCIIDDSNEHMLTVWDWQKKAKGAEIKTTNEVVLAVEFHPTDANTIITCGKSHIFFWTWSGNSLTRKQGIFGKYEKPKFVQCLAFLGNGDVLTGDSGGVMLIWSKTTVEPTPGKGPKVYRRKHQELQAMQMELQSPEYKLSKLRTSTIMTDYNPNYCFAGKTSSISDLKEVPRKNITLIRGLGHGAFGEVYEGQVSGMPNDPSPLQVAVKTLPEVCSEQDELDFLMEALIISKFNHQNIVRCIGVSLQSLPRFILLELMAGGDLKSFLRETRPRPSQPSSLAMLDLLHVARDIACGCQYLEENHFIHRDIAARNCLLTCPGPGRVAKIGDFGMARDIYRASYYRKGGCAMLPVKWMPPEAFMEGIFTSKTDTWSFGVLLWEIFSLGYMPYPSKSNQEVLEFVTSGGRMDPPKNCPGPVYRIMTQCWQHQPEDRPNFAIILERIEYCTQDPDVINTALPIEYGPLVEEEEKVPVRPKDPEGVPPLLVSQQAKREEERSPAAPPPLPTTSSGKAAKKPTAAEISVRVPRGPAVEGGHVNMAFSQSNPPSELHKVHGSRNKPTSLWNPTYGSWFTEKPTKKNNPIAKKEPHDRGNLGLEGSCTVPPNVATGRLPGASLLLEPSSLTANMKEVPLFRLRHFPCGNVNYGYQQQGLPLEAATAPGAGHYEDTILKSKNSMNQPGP
Target sequence in this assay (Q96SW2 whole entry partner): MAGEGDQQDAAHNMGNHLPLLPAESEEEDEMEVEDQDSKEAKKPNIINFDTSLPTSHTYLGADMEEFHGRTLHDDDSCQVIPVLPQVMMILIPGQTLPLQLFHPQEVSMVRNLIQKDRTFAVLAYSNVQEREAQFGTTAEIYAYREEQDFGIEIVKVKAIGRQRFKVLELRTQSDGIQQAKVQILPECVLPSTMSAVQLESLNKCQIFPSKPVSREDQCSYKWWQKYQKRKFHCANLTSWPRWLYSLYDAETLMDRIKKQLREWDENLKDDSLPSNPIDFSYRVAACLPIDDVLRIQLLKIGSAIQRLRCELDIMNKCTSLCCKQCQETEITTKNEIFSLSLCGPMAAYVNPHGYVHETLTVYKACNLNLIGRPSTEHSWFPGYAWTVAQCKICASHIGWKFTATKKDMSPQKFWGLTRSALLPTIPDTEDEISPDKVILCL

FAK [6] = target: T2, FAK; assay: In vitro kinase assay (Life Technologies), FAK; settings: ATP concentration = Km, duplicate; read-out: Biochemical IC50 FAK
Description: (§4) In vitro kinase assays with inventive compound 13 and VS-4718 were performed by Life Technologies™ in duplicate at an ATP concentration=Km for each indicated kinase. The results are summarized in Table 2 and indicate that inventive compound 13 maintained potent FAK activity, with improved activity on ALK as compared to VS-4718.

kinome = assay: KINOMEscan competition binding assays; settings: 1000 nM, compared to VS-4718
Description: KINOMEscan® competition binding assays with inventive compound 13 and VS-4718 were performed by DiscovrX at 1000 nM. […] Additionally, despite the observed activity of compound 13 on ALK, degradation of ALK with compound 9 was not observed (FIG. 6B).

ALK [7] = target: T3, ALK; assay: In vitro kinase assay (Life Technologies), ALK; parameters: purchased Life Technologies; settings: ATP concentration = Km, duplicate; read-out: Biochemical IC50 ALK
Description: as §4

FAK [8] = target: T2, FAK; assay: Rescue of compound 9-induced FAK degradation in PA-TU-8988T cells after pre-treatment; type: cell-based; parameters: endogenous in cells; host or cells: PA-TU-8988T; settings: pre-treatment 2 hours (0.5 μM carfilzomib, 1.0 μM MLN4924, 10 μM lenalidomide, 10 μM compound 13), then 10 nM compound 9 for 4 hours
Description: as §3, with “PA-TU-8988T cells were treated with FAK degraders or indicated inhibitors for four hours at the indicated doses. After four hours, PA-TU-8988T cells were lysed in radioimmunoprecipitation assay (RIPA) buffer (Thermo Scientific™) on ice for 60 minutes and lysates were clarified by centrifugation. Immunoblotting” for “Immunoblotting”

T2 sequence (Q05397 whole entry): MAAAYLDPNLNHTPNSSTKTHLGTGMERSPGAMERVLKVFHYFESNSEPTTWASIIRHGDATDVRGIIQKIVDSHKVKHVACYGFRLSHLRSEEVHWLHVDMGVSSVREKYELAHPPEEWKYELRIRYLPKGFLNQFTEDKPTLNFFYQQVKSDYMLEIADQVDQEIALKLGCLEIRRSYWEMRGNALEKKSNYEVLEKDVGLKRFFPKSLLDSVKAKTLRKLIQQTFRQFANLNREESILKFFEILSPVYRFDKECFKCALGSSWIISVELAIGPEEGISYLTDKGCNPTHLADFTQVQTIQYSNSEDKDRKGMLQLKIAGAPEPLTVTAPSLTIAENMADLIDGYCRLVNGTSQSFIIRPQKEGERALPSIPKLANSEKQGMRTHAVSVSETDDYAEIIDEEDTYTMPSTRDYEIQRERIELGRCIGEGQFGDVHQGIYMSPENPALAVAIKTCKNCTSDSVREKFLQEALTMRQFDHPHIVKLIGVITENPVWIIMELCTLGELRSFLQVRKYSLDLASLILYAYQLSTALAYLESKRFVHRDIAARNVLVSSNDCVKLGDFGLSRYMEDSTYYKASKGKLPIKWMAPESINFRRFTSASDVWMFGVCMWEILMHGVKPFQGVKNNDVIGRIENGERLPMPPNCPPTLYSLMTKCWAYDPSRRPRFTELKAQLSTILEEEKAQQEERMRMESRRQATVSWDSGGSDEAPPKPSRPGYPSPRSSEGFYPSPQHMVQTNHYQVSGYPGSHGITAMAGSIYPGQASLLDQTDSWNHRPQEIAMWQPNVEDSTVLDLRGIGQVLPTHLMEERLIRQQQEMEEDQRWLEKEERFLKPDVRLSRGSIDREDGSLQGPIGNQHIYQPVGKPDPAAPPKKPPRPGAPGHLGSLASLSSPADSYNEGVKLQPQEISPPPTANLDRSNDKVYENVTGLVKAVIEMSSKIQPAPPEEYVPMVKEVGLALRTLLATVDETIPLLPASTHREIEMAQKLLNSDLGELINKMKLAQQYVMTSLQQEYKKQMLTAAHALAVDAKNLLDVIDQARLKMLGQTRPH
T1 sequence (P34152 whole entry): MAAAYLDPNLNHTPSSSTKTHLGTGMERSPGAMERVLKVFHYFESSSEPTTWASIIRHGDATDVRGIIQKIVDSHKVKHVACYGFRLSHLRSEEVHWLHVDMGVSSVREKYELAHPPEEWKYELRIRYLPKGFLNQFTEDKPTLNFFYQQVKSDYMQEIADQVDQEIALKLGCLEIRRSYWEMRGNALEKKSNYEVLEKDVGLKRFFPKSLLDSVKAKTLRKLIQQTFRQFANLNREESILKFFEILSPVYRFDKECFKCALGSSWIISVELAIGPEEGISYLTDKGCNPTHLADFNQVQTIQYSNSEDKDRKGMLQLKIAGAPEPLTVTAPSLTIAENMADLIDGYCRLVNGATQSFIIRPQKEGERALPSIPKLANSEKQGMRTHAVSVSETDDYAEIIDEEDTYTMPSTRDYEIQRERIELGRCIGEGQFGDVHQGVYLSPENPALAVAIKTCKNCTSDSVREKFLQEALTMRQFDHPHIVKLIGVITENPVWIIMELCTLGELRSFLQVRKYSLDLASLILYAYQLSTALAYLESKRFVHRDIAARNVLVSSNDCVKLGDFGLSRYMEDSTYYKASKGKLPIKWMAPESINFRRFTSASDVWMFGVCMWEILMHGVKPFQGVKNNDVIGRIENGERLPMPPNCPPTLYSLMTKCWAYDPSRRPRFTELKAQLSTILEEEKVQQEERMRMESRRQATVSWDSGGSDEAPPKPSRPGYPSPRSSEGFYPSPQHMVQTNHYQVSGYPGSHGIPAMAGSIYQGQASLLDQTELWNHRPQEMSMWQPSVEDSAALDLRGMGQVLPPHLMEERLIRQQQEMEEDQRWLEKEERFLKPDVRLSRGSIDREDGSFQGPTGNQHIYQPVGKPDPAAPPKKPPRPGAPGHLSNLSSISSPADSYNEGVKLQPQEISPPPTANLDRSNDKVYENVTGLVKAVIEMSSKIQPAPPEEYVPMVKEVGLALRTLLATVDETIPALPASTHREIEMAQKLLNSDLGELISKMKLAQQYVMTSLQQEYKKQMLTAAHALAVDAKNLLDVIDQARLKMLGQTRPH

Degradation of FAK protein in mouse livers (FAK [1]) | Degradation of FAK protein in H3122 cells (in words) (FAK [2]) | inhibition at 0.01 µM (FAK [3]) [%] | inhibition at 0.1 µM (FAK [3]) [%] | Degradation of FAK protein in PA-TU-8988T xenograft tumors (FAK [4]) | IC50 (FAK [6]) [nM] | Kinome-wide selectivity (kinome) | IC50 (ALK [7]) [nM] | SMILES | Degradation of FAK protein (in words) (FAK [3]) | Degradation of ALK protein in H3122 cells (in words) (ALK [5]) | Rescue of FAK degradation induced by compound 9 (FAK [8])
pronounced degradation of FAK protein | pronounced degradation of FAK protein | 85 to 100 | 85 to 100 | pronounced degradation of FAK protein |  |  |  | CNC(=O)c1ccccc1Nc1cc(Nc2cc(C)c(C3CCN(CCCCCCNC(=O)COc4cccc5c4C(=O)N(C4CCC(=O)NC4=O)C5=O)CC3)cc2OC(C)C)ncc1C(F)(F)F (centres unmarked) [Compound 9, 2-((2-((4-(1-(6-(2-((2-(2,6-dioxopiperidin-3-yl)-1,3-dioxoisoindolin-4-yl)oxy)acetamido)hexyl)piperidin-4-yl)-2-isopropoxy-5-methylphenyl)amino)-5-(trifluoromethyl)pyridin-4-yl)amino)-N-methylbenzamide] | rapid and pronounced degradation of FAK protein | do not show degradation of ALK; also recorded: not observed | 
 |  | 0 to 24 | 0 to 24 |  | 21 | improved kinome-wide selectivity | 26.3 | CNC(=O)c1ccccc1Nc1cc(Nc2cc(C)c(C3CCNCC3)cc2OC(C)C)ncc1C(F)(F)F [Compound 13] | did not induce degradation of FAK protein |  | rescued the degradation induced by compound 9
